Key:
[1] = system: monocytic THP1 cells infected with HIV VSV-G pseudotyped GFP-NEF reporter virus; assay: cells; assay type: cell-based; conditions: Human immunodeficiency virus 1, THP-1, 24 h
[2] = system: CD4 cells, isolated from healthy donor PMBCs, infected with HIV VSV-G pseudotyped GFP-GAG reporter virus; assay: tissue or blood; assay type: cell-based; conditions: Homo sapiens, 72 h

SMILES	EC50 [1] [nM]	EC50 [2] [nM]
Cc1cc(/C=C/C#N)cc(C)c1Oc1nc(NC23CC(C#N)(C2)C3)nc2[nH]ncc12 [Compound 10, (E)-3-((4-(4-(2-cyanovinyl)-2,6-dimethylphenoxy)-1H-pyrazolo[3,4-d]pyrimidin-6-yl)amino)bicyclo[1.1.1]pentane-1-carbonitrile]	65.9	54.7
Cc1nc2nc(NC34CC(C#N)(C3)C4)nc(Oc3c(C)cc(/C=C/C#N)cc3C)c2[nH]1 [Compound 14, (E)-3-((6-(4-(2-cyanovinyl)-2,6-dimethylphenoxy)-8-methyl-7H-purin-2-yl)amino)bicyclo[1.1.1]pentane-1-carbonitrile]	81.3	84.2
Cc1cc(/C=C/C#N)cc(C)c1Nc1nc(NC23CC(C#N)(C2)C3)nc2scnc12 [Compound 23, (E)-3-((7-((4-(2-cyanovinyl)-2,6-dimethylphenyl)amino)thiazolo[5,4-d]pyrimidin-5-yl)amino)bicyclo[1.1.1]pentane-1-carbonitrile]	31.7	17
Cc1cc(/C=C/C#N)cc(C)c1Oc1nc(NC23CC(C#N)(C2)C3)nc2[nH]c(=O)[nH]c12 [Compound 27, (E)-3-((6-(4-(2-cyanovinyl)-2,6-dimethylphenoxy)-8-oxo-8,9-dihydro-7H-purin-2-yl)amino)bicyclo[1.1.1]pentane-1-carbonitrile]	68.3	99.4
Cc1cc(/C=C/C#N)cc(C)c1Oc1nc(NC23CC(C#N)(C2)C3)nc2nc(C(C)(F)F)n(C)c12 [Compound 41, (E)-3-((6-(4-(2-cyanovinyl)-2,6-dimethylphenoxy)-8-(1,1-difluoroethyl)-7-methyl-7H-purin-2-yl)amino)bicyclo[1.1.1]pentane-1-carbonitrile]		77.6
COc1ccc(Cn2cnc3c(Oc4c(C)cc(/C=C/C#N)cc4C)nc(NC45CC(C#N)(C4)C5)nc32)cc1 [Compound 42, (E)-3-((6-(4-(2-cyanovinyl)-2,6-dimethylphenoxy)-9-(4-methoxybenzyl)-9H-purin-2-yl)amino)bicyclo[1.1.1]pentane-1-carbonitrile]	518	894
COc1ccc(Cn2cnc3nc(NC45CC(C#N)(C4)C5)nc(Oc4c(C)cc(/C=C/C#N)cc4C)c32)cc1 [Compound 43, (E)-3-((6-(4-(2-cyanovinyl)-2,6-dimethylphenoxy)-7-(4-methoxybenzyl)-7H-purin-2-yl)amino)bicyclo[1.1.1]pentane-1-carbonitrile]	90.5	87.7
Cc1cc(/C=C/C#N)cc(C)c1Oc1nc(NC23CC(C#N)(C2)C3)nc2nc[nH]c12 [Compound 44, (E)-3-((6-(4-(2-cyanovinyl)-2,6-dimethylphenoxy)-7H-purin-2-yl)amino)bicyclo[1.1.1]pentane-1-carbonitrile]		109
Cc1cc(/C=C/C#N)cc(C)c1Oc1nc(NC23CC(C#N)(C2)C3)nc2nc(C3CC3)[nH]c12 [Compound 49, (E)-3-((6-(4-(2-cyanovinyl)-2,6-dimethylphenoxy)-8-cyclopropyl-7H-purin-2-yl)amino)bicyclo[1.1.1]pentane-1-carbonitrile]	110	166
Cc1cc(/C=C/C#N)cc(C)c1Oc1nc(NC23CC(C#N)(C2)C3)nc2nc(C3CCC3)[nH]c12 [Compound 50, (E)-3-((6-(4-(2-cyanovinyl)-2,6-dimethylphenoxy)-8-cyclobutyl-7H-purin-2-yl)amino)bicyclo[1.1.1]pentane-1-carbonitrile]	166	151
Cc1nc2c(Nc3c(C)cc(/C=C/C#N)cc3C)nc(NC34CC(C#N)(C3)C4)nc2s1 [Compound 55, (E)-3-((7-((4-(2-cyanovinyl)-2,6-dimethylphenyl)amino)-2-methylthiazolo[5,4-d]pyrimidin-5-yl)amino)bicyclo[1.1.1]pentane-1-carbonitrile]	130	25.9
Cc1cc(/C=C/C#N)cc(C)c1Oc1nc(NC23CC(C#N)(C2)C3)nc2scnc12 [Compound 56, (E)-3-((7-(4-(2-cyanovinyl)-2,6-dimethylphenoxy)thiazolo[5,4-d]pyrimidin-5-yl)amino)bicyclo[1.1.1]pentane-1-carbonitrile]	142	96.6
Cc1nc2nc(NC34CC(C#N)(C3)C4)nc(Oc3c(F)cc(/C=C/C#N)cc3F)c2[nH]1 [Compound 58, (E)-3-((6-(4-(2-cyanovinyl)-2,6-difluorophenoxy)-8-methyl-7H-purin-2-yl)amino)bicyclo[1.1.1]pentane-1-carbonitrile]		430
Cc1nc2nc(NC34CC(C#N)(C3)C4)nc(Oc3c(Cl)cc(/C=C/C#N)cc3Cl)c2[nH]1 [Compound 59, (E)-3-((6-(2,6-dichloro-4-(2-cyanovinyl)phenoxy)-8-methyl-7H-purin-2-yl)amino)bicyclo[1.1.1]pentane-1-carbonitrile]		336
Cc1cc(/C=C/C#N)cc(C)c1Oc1nc(NC23CC(C#N)(C2)C3)nc2nc(C(C)(C)O)[nH]c12 [Compound 60, (E)-3-((6-(4-(2-cyanovinyl)-2,6-dimethylphenoxy)-8-(2-hydroxypropan-2-yl)-7H-purin-2-yl)amino)bicyclo[1.1.1]pentane-1-carbonitrile]	373	175
Cc1cc(/C=C/C#N)cc(C)c1Oc1nc(NC23CC(C#N)(C2)C3)nc2ncsc12 [Compound 75, (E)-3-((7-(4-(2-cyanovinyl)-2,6-dimethylphenoxy)thiazolo[4,5-d]pyrimidin-5-yl)amino)bicyclo[1.1.1]pentane-1-carbonitrile]		55
Cc1cc(/C=C/C#N)cc(C)c1Oc1nc(NC23CC(C#N)(C2)C3(F)F)nc2[nH]nc(C)c12 [Compound 77, (E)-3-((4-(4-(2-cyanovinyl)-2,6-dimethylphenoxy)-3-methyl-1H-pyrazolo[3,4-d]pyrimidin-6-yl)amino)-2,2-difluorobicyclo[1.1.1]pentane-1-carbonitrile]		28.2
Cc1cc(/C=C/C#N)cc(C)c1Oc1nc(NC23CC(C#N)(C2)C3(F)F)nc2c1CCO2 [Compound 78, (E)-3-((4-(4-(2-cyanovinyl)-2,6-dimethylphenoxy)-5,6-dihydrofuro[2,3-d]pyrimidin-2-yl)amino)-2,2-difluorobicyclo[1.1.1]pentane-1-carbonitrile]		12.1
Cc1cc(/C=C/C#N)cc(Cl)c1Oc1nc(NC23CC(C#N)(C2)C3)nc2[nH]nc(C)c12 [Compound 85, (E)-3-((4-(2-chloro-4-(2-cyanovinyl)-6-methylphenoxy)-3-methyl-1H-pyrazolo[3,4-d]pyrimidin-6-yl)amino)bicyclo[1.1.1]pentane-1-carbonitrile]		20.9
CCn1cnc2nc(NC34CC(C#N)(C3)C4)nc(Oc3c(C)cc(/C=C/C#N)cc3C)c21 [Compound 114, (E)-3-((6-(4-(2-cyanovinyl)-2,6-dimethylphenoxy)-7-ethyl-7H-purin-2-yl)amino)bicyclo[1.1.1]pentane-1-carbonitrile]		51.1
Cc1cc(/C=C/C#N)cc(C)c1Oc1nc(NC23CC(C#N)(C2)C3)nc2c1CSC2 [Compound 116, (E)-3-((4-(4-(2-cyanovinyl)-2,6-dimethylphenoxy)-5,7-dihydrothieno[3,4-d]pyrimidin-2-yl)amino)bicyclo[1.1.1]pentane-1-carbonitrile]		63.3
Cc1cc(/C=C/C#N)cc(C)c1Oc1nc(NC23CC(C#N)(C2)C3)nc2c1COC2 [Compound 117]		23.9
Cc1cc(/C=C/C#N)cc(C)c1Oc1nc(NC23CC(C#N)(C2)C3)nc2c1CCO2 [Compound 118, (E)-3-((4-(4-(2-cyanovinyl)-2,6-dimethylphenoxy)-5,6-dihydrofuro[2,3-d]pyrimidin-2-yl)amino)bicyclo[1.1.1]pentane-1-carbonitrile]		80.4
COC(=O)N1Cc2nc(NC34CC(C#N)(C3)C4)nc(Oc3c(C)cc(/C=C/C#N)cc3C)c2C1 [Compound 151, (E)-methyl 2-((3-cyanobicyclo[1.1.1]pentan-1-yl)amino)-4-(4-(2-cyanovinyl)-2,6-dimethylphenoxy)-5H-pyrrolo[3,4-d]pyrimidine-6(7H)-carboxylate]		76
Cc1cc(/C=C/C#N)cc(C)c1Oc1nc(NC23CC(C#N)(C2)C3)nc2c1C[N+](C)(C)C2 [Compound 152, (E)-2-((3-cyanobicyclo[1.1.1]pentan-1-yl)amino)-4-(4-(2-cyanovinyl)-2,6-dimethylphenoxy)-6,6-dimethyl-6,7-dihydro-5H-pyrrolo[3,4-d]pyrimidin-6-ium]		3360
Cc1cc(/C=C/C#N)cc(C)c1Oc1nc(NC23CC(CC(F)F)(C2)C3)nc2nc[nH]c12 [Compound 155, (E)-3-(4-((2-((3-(2,2-difluoroethyl)bicyclo[1.1.1]pentan-1-yl)amino)-7H-purin-6-yl)oxy)-3,5-dimethylphenyl)acrylonitrile]		419
C/C(C#N)=C\c1cc(C)c(Oc2nc(NC34CC(C#N)(C3)C4)nc3nn(C)cc23)c(C)c1 [Example 258, (E)-3-((4-(4-(2-cyanoprop-1-en-1-yl)-2,6-dimethylphenoxy)-2-methyl-2H-pyrazolo[3,4-d]pyrimidin-6-yl)amino)bicyclo[1.1.1]pentane-1-carbonitrile]	178	
Cc1cc(/C=C/C#N)cc(C)c1Oc1nc(NC23CC(C#N)(C2)C3)nc2nn3c(c12)COCC3 [Example 259, (E)-3-((4-(4-(2-cyanovinyl)-2,6-dimethylphenoxy)-7,8-dihydro-5H-pyrimido[4′,5′:3,4]pyrazolo[5,1-c][1,4]oxazin-2-yl)amino)bicyclo[1.1.1]pentane-1-carbonitrile]	23.6	
Cc1cc(/C=C/C#N)cc(C)c1Oc1nc(NC23CC(C#N)(C2)C3)nc2c1C(C)OC2 (stereo not shown) [Example 263, (E)-3-((4-(4-(2-cyanovinyl)-2,6-dimethylphenoxy)-5-methyl-5,7-dihydrofuro[3,4-d]pyrimidin-2-yl)amino)bicyclo[1.1.1]pentane-1-carbonitrile]	60.4	
